In ChEMBL document CHEMBL1133604, “1-imidazolyl(alkyl)-substituted di- and tetrahydroquinolines and analogues: syntheses and evaluation of dual inhibitors of thromboxane A(2) synthase and aromatase” (J Med Chem, 2000):
Activity calls are given as the source filed them. No cut-off for these calls is given here.

Experiments:
[1] = target: T1, Thromboxane-A synthase (Homo sapiens, UniProt P24557); assay type: tissue-based, Blood
T1 sequence (P24557 whole entry): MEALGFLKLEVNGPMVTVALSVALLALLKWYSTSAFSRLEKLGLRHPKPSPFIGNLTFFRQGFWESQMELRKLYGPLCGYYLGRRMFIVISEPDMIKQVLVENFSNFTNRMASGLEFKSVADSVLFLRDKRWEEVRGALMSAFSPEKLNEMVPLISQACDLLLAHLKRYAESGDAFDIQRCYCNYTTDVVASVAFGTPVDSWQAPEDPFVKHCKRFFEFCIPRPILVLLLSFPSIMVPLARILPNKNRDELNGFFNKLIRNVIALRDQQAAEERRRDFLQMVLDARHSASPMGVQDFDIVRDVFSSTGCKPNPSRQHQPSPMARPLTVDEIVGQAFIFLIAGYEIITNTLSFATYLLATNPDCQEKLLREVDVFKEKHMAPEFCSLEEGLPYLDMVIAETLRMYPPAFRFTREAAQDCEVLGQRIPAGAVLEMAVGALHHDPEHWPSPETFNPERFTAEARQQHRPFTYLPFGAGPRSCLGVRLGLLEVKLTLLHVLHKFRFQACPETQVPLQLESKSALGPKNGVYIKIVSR

[2] = target: T2, Steroid 17-alpha-hydroxylase/17,20 lyase (Rattus norvegicus, UniProt P11715)
T2 sequence (P11715 whole entry): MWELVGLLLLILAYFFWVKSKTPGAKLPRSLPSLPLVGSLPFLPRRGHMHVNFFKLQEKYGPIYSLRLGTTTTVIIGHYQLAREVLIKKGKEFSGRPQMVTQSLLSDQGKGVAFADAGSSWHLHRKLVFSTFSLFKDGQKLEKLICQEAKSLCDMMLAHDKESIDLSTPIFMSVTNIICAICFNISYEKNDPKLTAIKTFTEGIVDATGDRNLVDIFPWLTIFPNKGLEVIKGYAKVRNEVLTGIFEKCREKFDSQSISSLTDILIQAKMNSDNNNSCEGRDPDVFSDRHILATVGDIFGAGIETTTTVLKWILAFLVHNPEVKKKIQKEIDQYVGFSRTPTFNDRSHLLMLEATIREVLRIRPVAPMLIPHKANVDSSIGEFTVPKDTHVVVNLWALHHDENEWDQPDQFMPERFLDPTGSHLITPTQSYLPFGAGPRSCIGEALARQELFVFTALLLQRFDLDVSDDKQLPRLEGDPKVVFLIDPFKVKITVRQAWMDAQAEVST

[3] = target: T1, Thromboxane-A synthase
[4] = target: T2, Steroid 17-alpha-hydroxylase/17,20 lyase; remark: listed apart in the source
[5] = organism: Bos taurus
[6] = cells; assay type: functional; details: Bos taurus
[7] = organism: Bos taurus; remark: listed apart in the source

| Compound | IC50 [1] [nM] | inhibition at 125 µM [2] [%] | also measured |
| --- | --- | --- | --- |
| C1=C(CCCn2ccnc2)c2cccnc2CC1 | 680 | 79 | – |
| C(/Cn1ccnc1)=C1\CCCc2sccc21 | 1260 | – | – |
| O=C(OC1CCCc2ncccc21)n1ccnc1 (stereo unspecified) | – | – | IC50 [3]: 1600 nM |
| c1cc(CCn2ccnc2)c2ccsc2c1 | 5300 | – | – |
| c1cnc2c(c1)C(CCn1ccnc1)CCC2 (stereo unspecified) | 630 | 49 | IC50 [4]: 125000 nM |
| c1cnc2c(c1)C(Cn1ccnc1)CCC2 (stereo unspecified) | 2000 | 11 | – |
| c1cc2ccc(Cn3ccnc3)cc2cn1 | 5400 | – | – |
| c1cnc2c(c1)C(n1ccnc1)CCC2 (stereo unspecified) | – | 14 | – |
| c1ccc2c(c1)CCCC2CCn1ccnc1 (stereo unspecified) | 3400 | > 80 | IC50 [4]: 20000 nM |
| C(/Cn1ccnc1)=C1\CCCc2occc21 | 4100 | – | – |
| c1cnc2c(c1)C(CCCn1ccnc1)CCC2 (stereo unspecified) | 2300 | 59 | – |
| c1cn(CCC2CCCc3sccc32)cn1 (stereo unspecified) | 1230 | – | – |
| C1=C(Cn2ccnc2)c2cccnc2CC1 | 1500 | 69 | – |
| c1cc(CCn2ccnc2)c2cccnc2c1 | 1200 | 22 | – |
| C1=C(CCn2ccnc2)c2cccnc2CC1 | 290 | 21 | NI [5]: inactive; IC50 [6]: 173 nM; NI [7]: inactive |
| C(/Cn1ccnc1)=C1/CCCc2occc21 | 3550 | – | – |
| c1cn(CCC2CCCc3occc32)cn1 (stereo unspecified) | 1010 | – | – |
| C(/Cn1ccnc1)=C1/CCCc2sccc21 | 1700 | – | – |
